US10550100B2, “5-[3-[piperzin-1-yl]-3-oxo-propyl]-imidazolidine-2,4-dione derivatives as ADAMTS 4 and 5 inhibitors for treating E.G. osteoarthritis” (GALAPAGOS NV, priority 2016, dated 2020)
pIC50: −log10 of the molar value. Where two headings read alike, the source gives them in different places.

Tests used:
Assay type in all cases: biochemical
human ADAMTS-5 [1] = target: T1, human ADAMTS-5 (Homo sapiens (Human), UniProt Q9UNA0); test: hADAMTS-5 TBIS-1 cleavage assay, Protocol 2; details: Protocol 2, TBIS-1 substrate, 45 min at 37° C.; read-out: hADAMTS-5 potency IC50
T1 sequence (Q9UNA0 262-930): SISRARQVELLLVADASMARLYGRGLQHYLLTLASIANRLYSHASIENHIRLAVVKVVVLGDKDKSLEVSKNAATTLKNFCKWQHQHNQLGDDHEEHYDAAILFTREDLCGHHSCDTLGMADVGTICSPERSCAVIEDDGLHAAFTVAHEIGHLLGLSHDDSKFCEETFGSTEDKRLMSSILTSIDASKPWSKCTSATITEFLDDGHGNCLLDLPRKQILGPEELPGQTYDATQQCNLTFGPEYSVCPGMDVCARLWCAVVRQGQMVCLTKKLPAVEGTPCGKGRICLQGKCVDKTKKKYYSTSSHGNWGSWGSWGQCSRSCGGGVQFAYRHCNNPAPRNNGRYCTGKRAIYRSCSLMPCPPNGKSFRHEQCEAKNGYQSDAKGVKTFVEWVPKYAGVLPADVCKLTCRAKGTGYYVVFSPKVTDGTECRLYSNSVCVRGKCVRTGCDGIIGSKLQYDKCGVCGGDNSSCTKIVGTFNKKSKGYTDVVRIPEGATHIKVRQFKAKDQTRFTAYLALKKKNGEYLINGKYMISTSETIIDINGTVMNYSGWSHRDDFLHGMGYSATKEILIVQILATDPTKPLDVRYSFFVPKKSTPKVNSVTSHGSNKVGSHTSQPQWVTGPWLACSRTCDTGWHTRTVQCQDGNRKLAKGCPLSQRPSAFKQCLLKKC
Experimental: The basis for the assay is the cleavage of the substrate TBIS-1 (5 FAM-[…] (5TAMRA)K-NH2) (SEQ ID NO: 2) by human ADAMTS-5.
(§1) The reaction is initiated by adding to the assay plate TBIS-1 (10 μL, 4.5 μM, Anaspec) in the same buffer.
Finally, the fluorescence is read on the Envision (Perkin Elmer) after an incubation of 45 min at 37° C. (Excitation 485 nm, emission 530).

human ADAMTS6 = human ADAMTS6 (Homo sapiens (Human), UniProt Q9UKP5); test: hADAMTS-6 520 MMP FRET substrate XII cleavage assay; details: 37° C. for 2 h, read-out: hADAMTS-6 potency IC50
Chain of human ADAMTS6 (Q9UKP5 other isoform, or with tags, fused parts or gaps): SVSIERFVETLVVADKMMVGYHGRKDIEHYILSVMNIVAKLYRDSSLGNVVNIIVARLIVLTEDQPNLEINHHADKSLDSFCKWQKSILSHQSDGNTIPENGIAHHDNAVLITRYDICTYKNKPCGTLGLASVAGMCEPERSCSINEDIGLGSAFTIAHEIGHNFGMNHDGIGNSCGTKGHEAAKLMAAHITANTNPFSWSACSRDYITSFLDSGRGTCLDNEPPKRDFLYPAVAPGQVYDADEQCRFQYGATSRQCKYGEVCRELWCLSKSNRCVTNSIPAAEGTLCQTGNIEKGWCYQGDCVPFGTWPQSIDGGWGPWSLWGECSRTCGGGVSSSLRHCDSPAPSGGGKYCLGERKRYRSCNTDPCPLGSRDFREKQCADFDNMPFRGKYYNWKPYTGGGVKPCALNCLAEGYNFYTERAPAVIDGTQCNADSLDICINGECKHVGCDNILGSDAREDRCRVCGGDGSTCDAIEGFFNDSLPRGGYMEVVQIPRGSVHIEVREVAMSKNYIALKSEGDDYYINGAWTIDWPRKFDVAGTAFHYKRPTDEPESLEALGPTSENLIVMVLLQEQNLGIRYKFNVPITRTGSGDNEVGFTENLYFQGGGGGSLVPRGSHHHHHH
In short: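 FRET cleavage of 520 MMP Substrate XII (Arg-Pro-Lys-Pro-Tyr-Ala-Nva-Trp-Met-Lys) by 0.73 nM enzyme in 25 mM Tris pH8.0, 0.05% CHAPS, 2.5 mM CaCl2. Compound dilution series from 20 μM top, 1/5 steps; substrate added from 1 μM stock, 2 h at 37° C. Fluorescence read at exc485/em530 for IC50.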

human TACE = human TACE (Homo sapiens (Human), UniProt P78536); test: hTACE 5FAM-[…]-5TAMRA cleavage assay; details: 75 min at room temperature, read-out: hTACE potency IC50
Chain of human TACE (P78536 215-671): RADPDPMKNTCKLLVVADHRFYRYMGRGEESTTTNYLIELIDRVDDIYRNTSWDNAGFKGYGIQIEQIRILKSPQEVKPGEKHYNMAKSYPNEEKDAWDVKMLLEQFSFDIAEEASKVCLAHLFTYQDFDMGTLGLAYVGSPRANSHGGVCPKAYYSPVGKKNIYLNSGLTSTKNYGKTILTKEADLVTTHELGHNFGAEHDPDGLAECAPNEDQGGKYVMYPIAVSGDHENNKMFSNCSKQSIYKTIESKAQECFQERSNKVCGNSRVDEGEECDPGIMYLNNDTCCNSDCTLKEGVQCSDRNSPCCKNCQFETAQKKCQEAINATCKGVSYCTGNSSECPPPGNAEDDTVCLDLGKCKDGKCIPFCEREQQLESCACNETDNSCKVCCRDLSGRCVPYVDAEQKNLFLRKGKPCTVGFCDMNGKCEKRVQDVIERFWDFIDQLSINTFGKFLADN
Experimental: Finally, the fluorescence is read on the Envision (Perkin Elmer) after an incubation of 75 min at room temperature (Excitation 485 nm, Emission 530).

human MMP13 = human MMP13 (Homo sapiens (Human), UniProt P45452); test: hMMP13 390 MMP FRET Substrate I cleavage assay, Protocol 1; details: Protocol 1, 390 MMP FRET Substrate I; read-out: hMMP-13 potency IC50
In short: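 Human MMP13 was preactivated with 1 mM p-aminophenylmercuric acetate for 1 h at 37° C. Cleavage of 390 MMP FRET Substrate I (2.5 μM as added) ran 45 min at room temperature, with fluorescence read at 485 nm excitation and 530 nm emission.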

rnADAMTS-5 (1-564-6H) = rnADAMTS-5 (1-564-6H) (Rattus norvegicus (Rat), UniProt Q6TY19); test: Rat ADAMTS-5 TBIS-1 substrate cleavage assay; details: rnADAMTS-5, TBIS-1 substrate, 120 min at 37° C.; read-out: Rat ADAMTS-5 potency IC50
Chain of rnADAMTS-5 (1-564-6H) (Q6TY19 entry or part of it): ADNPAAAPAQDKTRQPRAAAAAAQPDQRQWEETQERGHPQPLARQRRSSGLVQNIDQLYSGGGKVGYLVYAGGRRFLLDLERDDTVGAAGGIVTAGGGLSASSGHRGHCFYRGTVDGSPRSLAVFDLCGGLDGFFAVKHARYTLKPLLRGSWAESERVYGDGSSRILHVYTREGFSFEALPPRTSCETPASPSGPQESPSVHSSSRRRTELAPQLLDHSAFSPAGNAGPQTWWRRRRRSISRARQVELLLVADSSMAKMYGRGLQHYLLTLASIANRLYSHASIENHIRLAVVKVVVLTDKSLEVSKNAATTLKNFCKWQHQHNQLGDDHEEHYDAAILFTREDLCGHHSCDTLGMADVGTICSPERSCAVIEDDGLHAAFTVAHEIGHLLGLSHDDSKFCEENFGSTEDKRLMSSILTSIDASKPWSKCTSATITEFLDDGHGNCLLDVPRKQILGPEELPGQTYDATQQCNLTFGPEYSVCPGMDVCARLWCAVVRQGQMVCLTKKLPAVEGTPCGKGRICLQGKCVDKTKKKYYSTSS
Experimental: The basis for the assay is the cleavage of the substrate TBIS-1 (5 FAM-[…] (5TAMRA)K-NH2) (SEQ ID NO: 2) by rnADAMTS-5 (1-564-6H).
as §1
Finally, the fluorescence is read on the Envision (Perkin Elmer) after an incubation of 120 min at 37° C. (Excitation 485 nm, emission 535).

human ADAMTS-5 [2] = target: T1, human ADAMTS-5; test: hADAMTS-5 TBIS-1 cleavage assay, Protocol 3; details: Protocol 3, TBIS-1 substrate, 90 min at 37° C.; read-out: hADAMTS-5 potency IC50
Experimental: as §1
Finally, the fluorescence is read on the Envision (Perkin Elmer) after an incubation of 90 min at 37° C. (Excitation 485 nm, emission 530).

SMILES	pIC50 (human ADAMTS-5 [1])	pIC50 (human ADAMTS6)	pIC50 (human TACE; 5FAM-LAQAVRSSSRK-5TAMRA)	pIC50 (human MMP13)	pIC50 (rnADAMTS-5 (1-564-6H))	pIC50 (human ADAMTS-5 [2])	pIC50 (human TACE; 5FAM-[…]-5TAMRA)
CC(C)C1(CCC(=O)N2CCC(c3ccccc3)CC2)NC(=O)NC1=O (stereo not drawn) [Cpd 5, 5-isopropyl-5-(3-oxo-3-(4-phenylpiperidin-1-yl)propyl) imidazolidine-2,4-dione]	7.00 to 7.30	< 7.00	< 7.00				
CC1(CCC(=O)N2CCC(c3ccc(F)cc3)CC2)NC(=O)NC1=O (stereo not drawn) [Cpd 10, 5-(3-(4-(4-fluorophenyl)piperidin-1-yl)-3-oxopropyl)-5-methyl-imidazolidine-2,4-dione]	< 7.00	< 7.00	< 7.00	< 7.00			
CC1(CCC(=O)N2CCC(c3cc(Cl)cc(Cl)c3)CC2)NC(=O)NC1=O (stereo not drawn) [Cpd 9, 5-(3-(4-(3,5-dichlorophenyl)piperidin-1-yl)-3-oxopropyl)-5-methyl-imidazolidine-2,4-dione]	7.00 to 7.30	7.30 to 7.60	< 7.00	< 7.00	< 7.00		
O=C1NC(=O)C(CCC(=O)N2CCC(c3ccccc3)CC2)N1 (stereo not drawn) [Cpd 2, 5-[3-oxo-3-(4-phenyl-1-piperidyl)propyl] imidazolidine-2,4-dione]	< 7.00	< 7.00	< 7.00				
COc1ccccc1C1CCN(C(=O)CCC2(C)NC(=O)NC2=O)CC1 (stereo not drawn) [Cpd 6, 5-(3-(4-(2-methoxyphenyl)piperidin-1-yl)-3-oxopropyl)-5-methyl-imidazolidine-2,4-dione]	< 7.00	< 7.00					
O=C1NC(=O)C(CCC(=O)N2CCC(c3ccccc3)CC2)(c2ccccc2)N1 (stereo not drawn) [Cpd 3, 5-(3-oxo-3-(4-phenylpiperidin-1-yl)propyl)-5-phenyl imidazolidine-2,4-dione]	7.00 to 7.30	< 7.00	< 7.00		7.00 to 7.30		
CC1(CCC(=O)N2CCC(c3ccccc3)CC2)NC(=O)NC1=O (stereo not drawn) [Cpd 4, 5-methyl-5-(3-oxo-3-(4-phenylpiperidin-1-yl)propyl) imidazolidine-2,4-dione]	< 7.00	< 7.00	< 7.00				
O=C1NC(=O)[C@H](CCC(=O)N2CCC(c3ccccc3)CC2)N1 [Cpd 1, (S)-5-[(3-oxo-3-((4S)-phenylpiperidin-1-yl)propyl]) imidazolidine-2,4-dione]	< 7.00	< 7.00					
O=C1NC(=O)C(CCC(=O)N2CCC(c3ccccc3)CC2)(C2CC2)N1 (stereo not drawn) [Cpd 7, 5-cyclopropyl-5-(3-oxo-3-(4-phenylpiperidin-1-yl)propyl) imidazolidine-2,4-dione]	7.00 to 7.30	< 7.00	< 7.00	< 7.00	7.00 to 7.30		
Cc1ccc(C2CCN(C(=O)CCC3(C)NC(=O)NC3=O)CC2)cc1 (stereo not drawn) [Cpd 8, 5-methyl-5-(3-oxo-3-(4-p-tolylpiperidin-1-yl)propyl) imidazolidine-2,4-dione]	< 7.00	< 7.00					

Other lines, results leading:

pIC50 (human ADAMTS-5 [1])	pIC50 (human ADAMTS6)	pIC50 (human TACE; 5FAM-LAQAVRSSSRK-5TAMRA)	pIC50 (human MMP13)	pIC50 (rnADAMTS-5 (1-564-6H))	pIC50 (human ADAMTS-5 [2])	pIC50 (human TACE; 5FAM-[…]-5TAMRA)	SMILES
< 7.00	7.00 to 7.30	< 7.00	< 7.00				CC1(CCC(=O)N2CCC(c3cccc(Cl)c3)CC2)NC(=O)NC1=O (stereo not drawn) [Cpd 11, 5-(3-(4-(3-chlorophenyl)piperidin-1-yl)-3-oxopropyl)-5-methyl-imidazolidine-2,4-dione]
7.00 to 7.30	< 7.00	< 7.00	< 7.00	7.00 to 7.30			O=C1NC(=O)C(CCC(=O)N2CCC(c3ccccc3)CC2)(c2cccnc2)N1 (stereo not drawn) [Cpd 16, 5-(3-oxo-3-(4-phenyl-piperidin-1-yl)propyl)-5-(pyridin-3-yl)imidazolidine-2,4-dione]
< 7.00	< 7.00						CC1(CCC(=O)N2CCC(c3cccc(F)c3)CC2)NC(=O)NC1=O (stereo not drawn) [Cpd 13, 5-(3-(4-(3-fluorophenyl)piperidin-1-yl)-3-oxopropyl)-5-methyl-imidazolidine-2,4-dione]
< 7.00	7.00 to 7.30	< 7.00	< 7.00				CC1(CCC(=O)N2CCC(c3ccc(Cl)cc3)CC2)NC(=O)NC1=O (stereo not drawn) [Cpd 12, 5-(3-(4-(4-chlorophenyl)piperidin-1-yl)-3-oxopropyl)-5-methyl-imidazolidine-2,4-dione]
	7.30 to 7.60		< 7.00	7.60 to 12.00	7.30 to 7.60	7.00 to 7.30	C[C@@H](C[C@@]1(C)NC(=O)NC1=O)C(=O)N1CCC(c2cccc(Cl)c2)CC1 (stereo in doubt) [Cpd 29, 5-(3-(4-(3-chlorophenyl)piperidin-1-yl)-2-methyl-3-oxopropyl)-5-methyl-imidazolidine-2,4-dione]
	7.30 to 7.60	< 7.00	< 7.00	7.00 to 7.30	7.00 to 7.30		C[C@@H](C[C@@]1(C)NC(=O)NC1=O)C(=O)N1CCC(c2ccc(F)cc2)CC1 (stereo in doubt) [Cpd 26, 5-(3-(4-(4-fluorophenyl)piperidin-1-yl)-2-methyl-3-oxopropyl)-5-methyl-imidazolidine-2,4-dione]
< 7.00	< 7.00						CC1(CCC(=O)N2CCC(c3ccccc3F)CC2)NC(=O)NC1=O (stereo not drawn) [Cpd 14, 5-(3-(4-(2-fluorophenyl)piperidin-1-yl)-3-oxopropyl)-5-methyl-imidazolidine-2,4-dione]
	7.60 to 12.00		< 7.00	< 7.00	< 7.00	7.00 to 7.30	COc1cc(C2CCN(C(=O)CCC3(C)NC(=O)NC3=O)CC2)cc(OC)c1Cl (stereo not drawn) [Cpd 22, 5-(3-(4-(4-chloro-3,5-dimethoxy-phenyl)piperidin-1-yl)-3-oxopropyl)-5-methyl-imidazolidine-2,4-dione]
< 7.00	< 7.00						Cc1cccc(C2CCN(C(=O)CCC3(C)NC(=O)NC3=O)CC2)c1 (stereo not drawn) [Cpd 15, 5-methyl-5-(3-oxo-3-(4-m-tolylpiperidin-1-yl)propyl) imidazolidine-2,4-dione]
	7.60 to 12.00		< 7.00	7.30 to 7.60	7.30 to 7.60	7.00 to 7.30	C[C@@H](C[C@@]1(C)NC(=O)NC1=O)C(=O)N1CCC(c2cc(Cl)cc(Cl)c2)CC1 (stereo in doubt) [Cpd 25, 5-(3-(4-(3,5-dichlorophenyl)piperidin-1-yl)-2-methyl-3-oxopropyl)-5-methyl-imidazolidine-2,4-dione]
